The values that follow come from patent publication US20230302014A1, “USES OF GLUCOCORTICOID RECEPTOR (GR) ANTAGONIST AND ANDROGEN RECEPTOR (AR) DEGRADER COMBINATIONS” (ORIC Pharmaceuticals, Inc., priority 2020, published 2023).

What all share (format): cell-based, Human
The test system of one assay is AR protein. Nature of the assay: Western blot of AR protein after dose-dependent AR degrader treatment. The conditions noted are these: LNCaP and CWR22PC cells, 3 days, increasing doses 3-1000 nM. (In general: Immunoblotting shows a protein as a band on a membrane.)
In the next assay the test system is AR mRNA. Nature of the assay: RT-qPCR of AR mRNA after dose-dependent AR degrader treatment. The conditions noted are these: LNCaP and CWR22PC cells, 3 days, increasing doses 3-1000 nM. On the procedure:
LNCaP and CWR22PC cells were plated in seven 15-cm dishes (Corning#353025) at a density of 5 million cells per dish in RPMI-1640 media supplemented with 10% charcoal-stripped serum (CSS; OmegaScientific#FB4). After 24 hours, the cells were treated with 0, 3, 10, 30, 100, 300 and 1000 nM of ARD1 or ARD2 and incubated at 37° C. for 3 days. The cells were then trypsinized (Corning#25-053-CI) and harvested for transcript (RT-qPCR) and protein (western blot) analysis.
(§1) Adherent cells or cell pellets harvested for mRNA analysis were first washed once with PBS and then resuspended in 600 µL of RLT lysis buffer (Qiagen Inc.) supplemented with 1% of betamercaptoethanol. RNA was extracted by QIAcube using the RNeasy Mini QIAcube kit (Qiagen#74116) according to manufacturer’s instructions. The extracted RNA samples were then quantified using a Nanodrop 8000 Spectrophotometer. RT-qPCR reactions were set up in triplicate using 3 µL of 3 ng/ µL of RNA in 7 µL of pre-mixed SensiFAST™ SYBR No-ROX One-Step Kit reagents (BIOLINE# BIO-98005). The RT-qPCR reactions were run on a Bio-Rad CFX384 Real-Time PCR System and data was plotted with GraphPad Prism 8 software.
LNCaP and CWR22PC cells were plated in seven 10-cm dishes (Corning#353003) at a density of 2 million cells per dish in RPMI-1640 media supplemented with 10% charcoal-stripped serum (CSS; OmegaScientific#FB4). […]

Another assay deals with CWR22PC cells. Put plainly: Cell growth (cell number) of prostate cancer cells under long-term treatment. To be noted: CWR22PC; CSS media; 21 days; 0.1 nM R1881 + 1 µM ARV-110, + 30 nM dexamethasone, + 0.5 µM compound 1. The protocol: (§2) CWR22PC cells were seeded at a density of 2 × 10^5 cells/well in 6-well plates (Corning# 3516) in 2 mL of RPMI-1640 media supplemented with 10% charcoal-stripped serum (CSS) in duplicate. 24 hours later, cells were treated with 100 pM R1881, 30 nM dexamethasone, 0.5 µM compound 1, 1 µM of ARD1 or ARD2, or combinations thereof as indicated. Fresh media containing the indicated treatment was replaced every 5-7 days. Cell supernatant was collected on Day 12 and 19 and stored at -80° C. for PSA AlphaLISA assay. Cell images were taken on Day 12 and 19 using Leica DMi8 microscope (LEICA MICROSYSTEMS, INC. IL) with a 10X magnification. Cells were then trypsinized and cell numbers in each treatment group were counted three times, average counts were plotted with GraphPad Prism 8. Cell pellets were washed once with 1XPBS and then lysed in 600 µL RLT RNA lysis buffer and stored at -80° C. RNA was extracted for end of study (EOS) biomarker analysis for which the detailed procedures are described in the section RNA Extraction and RT-qPCR analysis.
The impact of ARD1 and ARD2 on the growth of prostate cancer cells was explored. CWR22PC cells were plated in charcoal-stripped serum (CSS) media and treated with vehicle or 0.1 nM R1881 (synthetic AR ligand) without or with 1 µM of ARD1 or ARD2. Media with treatments were replaced every 5-7 days and cells were maintained at 37° C. for 22 days. Supernatant of each group was harvested at day 22 to measure PSA secretion by PSA AlphaLISA assays.
as §2, with “24 hours later, cells were treated with 100 pM R1881, 30 nM dexamethasone, 0.5 µM compound 1, 1 µM of ARD1 or ARD2, or combinations thereof as indicated.” left out, “15” for “12”, “21” for “19”, “assay.” for “assay. Cell images were taken on Day 12 and 19 using Leica DMi8 microscope (LEICA MICROSYSTEMS, INC. IL) with a 10X magnification.”

Assay [1] deals with AR and/or GR target genes KLK4, KLF9, FKBP5, PER1, SGK1. Put plainly: Biomarker analysis by RT-qPCR, 48 hours. To be noted: CWR22PC and 22Rv1 cells, 0.1 nM R1881, 1 µM degrader. The protocol:
CWR22PC and 22RV1 cells were seeded at a density of 2 × 10^5 cells/well in 6-well plates in 2 mL of RPMI-1640 media supplemented with 10% charcoal-stripped serum (CSS). Cells were treated with 100 pM R1881, 30 nM dexamethasone, 0.5 µM compound 1, 1 µM of ARD1 or ARD2, or combinations thereof as indicated and maintained at 37° C. 48 hours later, media was removed, and cells were washed once with PBS and then harvested for mRNA analysis.
as §1
CWR22PC and 22Rv1 cells were seeded at a density of 2 × 10^5 cells/well in 6-well plates in 2 mL of RPMI-1640 media supplemented with 10% charcoal-stripped serum (CSS). […] 48 hours later, media was removed, and cells were washed once with PBS and then harvested for mRNA analysis.
In general terms: In qPCR the cycle at which signal appears reflects the starting amount.

Protocol for AR protein: Cell pellets were washed with PBS and lysed in RIPA buffer (VWR#AAJ63306-AK) supplemented with proteasome inhibitor cocktails (VWR #AAJ65789-LQ). Resuspended cells were briefly sonicated for ~30 seconds using a probe sonicator and incubated on ice for 40 minutes, followed with centrifugation at 12,000 rpm for 15 minutes at 4° C. to collect the supernatant. Protein concentration was quantitated using Quick Start™ Bradford Protein Assay Kit (Bio-Rad #5000201).
Proteins were transferred to nitrocellulose membranes using iBlot 2 Dry Blotting System (ThermoFisher#IB210021) at 20 V for 10 minutes.

`N#Cc1ccc(O[C@H]2CC[C@H](NC(=O)c3ccc(N4CCC(CN5CCN(c6cc7c(cc6F)C(=O)N(C6CCC(=O)NC6=O)C7=O)CC5)CC4)nn3)CC2)cc1Cl` (stereo partly drawn) [ARV-110, N-[trans-4-(3-chloro-4-cyanophenoxy)cyclohexyl]-6-[4-[[4-[2-(2,6-dioxo-3-piperidinyl)-6-fluoro-2,3-dihydro-1,3-dioxo-1H-isoindol-5-yl]-1-piperazinyl]methyl]-1-piperidinyl]-3-pyridazinecarboxamide]: the AR protein levels entry with AR protein is recorded as “degrades AR protein in a dose-dependent manner”. The AR transcript levels entry in the assay on AR mRNA was “minimally impacting”. In addition, the R1881-induced cell growth entry in the assay with CWR22PC cells is “blunts”. Moreover, in assay [1], the “expression induction by R1881 of AR target FKBP5” value is reported as “completely inhibited” and the “expression induction by R1881 of AR target KLK4” value was “completely inhibited”.
